Where two headings read alike, the source gives them in different places.
Experiments:
Assay type in all cases: cell-based
[1] = tested on: Escherichia coli ATCC 25922; experiment: MIC, 2-fold dilution method in micro-well plate, E. coli
Experimental: (§1) The in vitro antibiotic activity of the present compound is measured using 2-fold dilution method with a micro-well plate and the bacteria are inoculated in about 10^5 cfu/ml after an overnight culture in a brain-heart infusion (BHI) broth at 37° C. The novel compounds of the present invention are converted to a hydrochloride salt form and diluted with a sterilized distilled water to make 10 mg/ml aqueous solution. After the mother liquor wherein the compound is diluted to the two-fold concentration has been obtained in the form of an aqueous solution, the respective 0.1 ml of diluted liquor is transferred to a well and is inoculated with 0.1 ml of the culture fluid to make about (10^5 -10^6)/2 cfu/ml.
(§2) After cultivation at 37° C., the minimum inhibitory concentration (MIC) is measured and recorded in Table I-V.
(§3) Table I-V show the minimum inhibitory concentrations (MIC).
Escherichia coli ATCC 25922

[2] = tested on: Shigella sonnei ATCC 25931; experiment: MIC, 2-fold dilution method in micro-well plate, S. sonnei; conditions: S. sonnei ATCC25931, 37° C., read-out: Minimum Inhibitory Concentration
Experimental: as §1, §2, §3
Shigella sonnei ATCC 25931

[3] = tested on: Shigella flexneri ATCC 12022; experiment: MIC, 2-fold dilution method in micro-well plate, S. flexneri; conditions: S. flexneri ATCC12022, 37° C., read-out: Minimum Inhibitory Concentration
Experimental: as §1, §2, §3
Shigella flexneri ATCC 12022

[4] = tested on: Acinetobacter calcoaceticus; experiment: MIC, 2-fold dilution method in micro-well plate, A. calcoaceticus
Experimental: as §1, §2
Table I-V show the minimum inhibitory concentrations (MIC). […]

[5] = tested on: Streptococcus pneumoniae ATCC 6303; experiment: MIC, 2-fold dilution method in micro-well plate, S. pneumoniae; conditions: S. pneuinoniae ATCC6303, 37° C., read-out: Minimum Inhibitory Concentration
Experimental: as §1, §2, §3
Streptococcus pneumoniae ATCC 6303

[6] = tested on: Klebsiella pneumoniae ATCC 13883; experiment: MIC, 2-fold dilution method in micro-well plate, K. pneumoniae
Experimental: as §1, §2, §3
Klebsiella pneumoniae ATCC 13883

[7] = tested on: Pseudomonas aeruginosa ATCC 27853; experiment: MIC, 2-fold dilution method in micro-well plate, P. aeruginosa
Experimental: as §1, §2, §3
Pseudomonas aeruginosa ATCC 27853

[8] = tested on: Enterobacter aerogenes ATCC 13048; experiment: MIC, 2-fold dilution method in micro-well plate, E. aerogenes; conditions: Klebsiella aerogenes
Experimental: as §1, §2, §3
Enterobacter aerogenes ATCC 13048

[9] = tested on: Proteus vulgaris ATCC 13315; experiment: MIC, 2-fold dilution method in micro-well plate, P. vulgaris
Experimental: as §1, §2, §3
Proteus vulgaris ATCC 13315

[10] = tested on: Serratia marcescens ATCC 8100; experiment: MIC, 2-fold dilution method in micro-well plate, S. marcescens
Experimental: as §1, §2, §3
Serratia marcescens ATCC 8100

[11] = tested on: Streptococcus faecalis ATCC 29212; experiment: MIC, 2-fold dilution method in micro-well plate, S. faecalis ATCC 29212; conditions: Enterococcus faecalis; S. faecalis ATCC29212, 37° C.; read-out: Minimum Inhibitory Concentration
Experimental: as §1, §2, §3
Streptococcus faecalis ATCC 29212

[12] = tested on: Streptococcus faecalis ATCC 19433; experiment: MIC, 2-fold dilution method in micro-well plate, S. faecalis ATCC 19433; conditions: Enterococcus faecalis; S. faecalis ATCC19433, 37° C.; read-out: Minimum Inhibitory Concentration
Experimental: as §1, §2, §3
Streptococcus faecalis ATCC 19433

[13] = tested on: Haemophilus influenza ATCC 35056; experiment: MIC, 2-fold dilution method in micro-well plate, H. influenzae; conditions: H. influenzae ATCC35056, 37° C.; read-out: Minimum Inhibitory Concentration
Experimental: as §1, §2, §3
Haemophilus influenza ATCC 35056

[14] = tested on: Streptococcus pyrogens ATCC 19615; experiment: MIC, 2-fold dilution method in micro-well plate, S. pyrogens; conditions: S. pyrogenes ATCC19615, 37° C., read-out: Minimum Inhibitory Concentration
Experimental: as §1, §2, §3
Streptococcus pyrogens ATCC 19615

[15] = tested on: Citrobacter freundii ATCC 8090; experiment: MIC, 2-fold dilution method in micro-well plate, C. freundii
Experimental: as §1, §2, §3
Citrobacter freundii ATCC 8090

[16] = tested on: Salmonella typhimurium ATCC 14028; experiment: MIC, 2-fold dilution method in micro-well plate, S. typhimurium; conditions: Salmonella enterica, read-out: Minimum Inhibitory Concentration
Experimental: as §1, §2, §3
Salmonella typhimurium ATCC 14028

Enterobacter cloacae = experiment: MIC, 2-fold dilution method in micro-well plate, E. cloacae; conditions: read-out: Minimum Inhibitory Concentration
Experimental: as §1, §2, §3
Enterobacter cloacae ATCC 23355

[17] = E. coli ATCC25922, 37° C., read-out: Minimum Inhibitory Concentration
[18] = A. calcoaceticus ATCC8090 (as in tables), 37° C., read-out: Minimum Inhibitory Concentration
[19] = ATCC13883, read-out: Minimum Inhibitory Concentration
[20] = ATCC27853, read-out: Minimum Inhibitory Concentration
[21] = E. aerogenes ATCC13048, 37° C., read-out: Minimum Inhibitory Concentration
[22] = ATCC13315, read-out: Minimum Inhibitory Concentration
[23] = S. marcescens ATCC8100, 37° C., read-out: Minimum Inhibitory Concentration
[24] = C. freundii ATCC8090, 37° C., read-out: Minimum Inhibitory Concentration
[25] = ATCC25922, read-out: Minimum Inhibitory Concentration
[26] = ATCC8090, read-out: Minimum Inhibitory Concentration
[27] = P. aerugirnosa ATCC27853, 37° C., read-out: Minimum Inhibitory Concentration
[28] = ATCC13048, read-out: Minimum Inhibitory Concentration
[29] = ATCC8100, read-out: Minimum Inhibitory Concentration
[30] = K. pneumoniae ATCC13883, 37° C., read-out: Minimum Inhibitory Concentration
[31] = P. vulgaris ATCC13315, 37° C., read-out: Minimum Inhibitory Concentration
[32] = S. typhisurium ATCC14028, 37° C.
[33] = E. cloacae ATCC23355 (as in tables), 37° C.

SMILES	MIC [1, 17] [mg/L]	MIC [2] [mg/L]	MIC [3] [mg/L]	MIC [4, 18] [mg/L]	MIC [5] [mg/L]	MIC [6, 19] [mg/L]	MIC [8, 21] [mg/L]	MIC [9, 22] [mg/L]	MIC [10, 23] [mg/L]	MIC [11] [mg/L]	MIC [12] [mg/L]	MIC [13] [mg/L]	MIC [14] [mg/L]	MIC [16] [mg/L]	MIC (Enterobacter cloacae) [mg/L]	MIC [7, 27] [mg/L]	MIC [8, 28] [mg/L]	MIC [10, 29] [mg/L]	MIC [15, 26] [mg/L]	MIC [9, 31] [mg/L]	other results
CC1CN(c2nc3c(cc2F)c(=O)c(C(=O)O)cn3-c2ccncc2F)CC(C)N1.Cl (stereo not drawn) [Example 10, 1-(3-fluoro-4-pyridyl)-6-fluoro-7-(3,5-dimethyl-1-piperazinyl)-1,4-dihydro-4-oxo-1,8-naphthyridine-3-carboxylic acid hydrochloride]	1.25	0.625	0.625	10	5	0.625	1.25	0.625	2.5	5	2.5	0.625	10	0.625	0.625	–	–	–	–	–	MIC [7, 20]: 0.25 mg/L; MIC [15, 24]: 1.25 mg/L
Cl.O=C(O)c1cn(-c2ccc(F)cn2)c2nc(N3CCNCC3)c(F)cc2c1=O [Example 12, 1-(5-fluoro-2-pyridyl)-6-fluoro-7-(1-piperazinyl)-1,4-dihydro-4-oxo-1,8-naphthyridine-3-carboxylic acid hydrochloride]	–	0.313	0.625	–	5	0.625	–	0.625	–	5	5	1.25	5	1.25	0.625	1.25	0.625	1.25	1.25	–	MIC [1, 25]: 0.313 mg/L; MIC [4, 26]: 0.625 mg/L
CC1CN(c2cc3c(cc2F)c(=O)c(C(=O)O)cn3-c2ccc(F)cn2)CC(C)N1.Cl (stereo not drawn) [Example 20, 1-(5-fluoro-2-pyridyl)-6-fluoro-7-(3,5-dimethyl-1-piperazinyl)-1,4-dihydro-4-oxoquinoline-3-carboxylic acid hydrochloride]	–	0.313	0.625	–	5	0.625	–	0.625	–	2.5	5	1.25	10	1.25	0.625	1.25	1.25	0.625	0.625	–	MIC [1, 25]: 0.625 mg/L; MIC [4, 26]: 1.25 mg/L
Cl.O=C(O)c1cn(-c2ccc(F)cn2)c2cc(N3CCNCC3)c(F)cc2c1=O [Example 17, 1-(5-fluoro-2-pyridyl)-6-fluoro-7-(1-piperazinyl)-1,4-dihydro-4-oxoquinoline-3-carboxylic acid hydrochloride]	0.313	0.625	0.625	2.5	5	0.625	–	0.625	2.5	2.5	5	1.25	5	1.25	1.25	1.25	1.25	–	1.25	–	–
CC1CN(c2nc3c(cc2F)c(=O)c(C(=O)O)cn3-c2ccc(F)cn2)CC(C)N1.Cl (stereo not drawn) [Example 15, 1-(5-fluoro-2-pyridyl)-6-fluoro-7-(3,5-dimethyl-1-piperazinyl)-1,4-dihydro-4-oxo-1,8-naphthyridine-3-carboxylic acid hydrochloride]	0.625	0.078	0.313	0.625	10	–	1.25	–	1.25	5	5	2.5	10	–	–	1.25	–	–	0.313	1.25	MIC [6, 30]: 0.625 mg/L; MIC [16, 32]: 1.25 mg/L; MIC (Enterobacter cloacae; [33]): 0.625 mg/L
Cl.N[C@H]1CCN(c2cc3c(cc2F)c(=O)c(C(=O)O)cn3-c2ccc(F)cn2)C1 [Example 22, 1-(5-fluoro-2-pyridyl)-6-fluoro-7-[(3S)-3-amino-1-pyrrolidinyl]-1,4-dihydro-4-oxoquinoline-3-carboxylic acid hydrochloride]	0.039	0.039	0.156	0.313	1.25	–	0.078	–	0.078	1.25	0.625	0.078	2.5	–	–	0.156	–	–	–	0.078	MIC [6, 30]: 0.039 mg/L; MIC [15, 24]: 0.039 mg/L; MIC [16, 32]: 0.078 mg/L; MIC (Enterobacter cloacae; [33]): 0.078 mg/L
CN1CCN(c2c(F)cc3c(=O)c(C(=O)O)cn(-c4ccc(F)cn4)c3c2F)CC1.Cl [Example 24, 1-(5-fluoro-2-pyridyl)-6,8-difluoro-7-(4-methyl-1-piperazinyl)-1,4-dihydro-4-oxoquinoline-3-carboxylic acid hydrochloride]	–	0.156	0.625	–	5	0.625	–	0.625	–	2.5	5	0.313	10	0.313	0.625	0.625	0.625	0.625	0.625	–	MIC [1, 25]: 0.625 mg/L; MIC [4, 26]: 0.625 mg/L
Cl.NC1CCN(c2c(F)cc3c(=O)c(C(=O)O)cn(-c4ccc(F)cn4)c3c2F)C1 (stereo not drawn) [Example 27, 1-(5-fluoro-2-pyridyl)-6,8-difluoro-7-(3-amino-1-pyrrolidinyl)-1,4-dihydro-4-oxoquinoline-3-carboxylic acid hydrochloride]	0.078	0.005	0.078	0.313	2.5	–	0.156	–	0.313	2.5	1.25	0.078	2.5	–	–	0.313	–	–	–	0.156	MIC [6, 30]: 0.156 mg/L; MIC [15, 24]: 0.156 mg/L; MIC [16, 32]: 0.078 mg/L; MIC (Enterobacter cloacae; [33]): 0.313 mg/L
Cl.N[C@H]1CCN(c2nc3c(cc2F)c(=O)c(C(=O)O)cn3-c2ccncc2F)C1 [Example 11, 1-(3-fluoro-4-pyridyl)-6-fluoro-7-[(3S)-3-amino-1-pyrrolidinyl]-1,4-dihydro-4-oxo-1,8-naphthyridine-3-carboxylic acid hydrochloride]	0.078	0.01	0.156	1.25	1.25	0.156	–	–	–	0.625	0.625	0.156	2.5	0.156	0.156	–	0.156	0.156	0.156	0.313	MIC [7, 20]: 0.156 mg/L

— patent US5496947A, “Quinolone carboxylic acid derivatives” (Dong Wha Pharmaceutical Industrial Co., Ltd., priority 1994, dated 1996)
